The values below come from patent EP4653441A1, “SALT OF ANTIDEPRESSANT COMPOUND, AND PREPARATION METHOD THEREFOR, PHARMACEUTICAL COMPOSITION CONTAINING SAME AND USE THEREOF” (Vigonvita Life Sciences Co., Ltd., priority 2023, dated 2024).

In brackets after ≈: the same amount, converted by molar mass. Where two headings read alike, the source gives them in different places.

The nature of data set [1]: Hygroscopicity measurement. The data set is classed as physicochemical. The conditions noted are these: 25°C, 92.5% RH, 24 hours. As to the method: (§1) 3. Hygroscopicity Measurement Method: The test sample was placed for 24 hours at 25°C and 92.5% RH, and then the weight gain by moisture absorption was measured. 4. Stability Test Method: The test sample was placed in a suitable clean container for 14 days under a high temperature (60°C), or a high humidity (40°C, a relative humidity of 75%) condition, and it was sampled on day 0 and day 14 to detect the purity and impurities of the test sample.

A short description of data set [2]: Solubility test in water by HPLC (external standard). The class given is physicochemical. The settings on record: 37°C, shaken 30 minutes. As to the method:
1. X-ray Powder Diffraction (XRPD) Test Method: • Instrument: Bruker D8 advance X-ray polycrystalline diffractometer; Target: Cu-Kα (40 kV, 40 mA); Sample-to-detector distance: 30 cm; Scanning type: two-axis linkage; Scanning step width: 0.02°; Scanning range: 3°~40°; Scanning step: 0.1 s. • In general, diffraction angles (2θ values) in XRPD may produce errors within a range of ± 0.2°, and thus numerical values relating to diffraction angles in the present invention should be understood to also encompass numerical values within a range of about ± 0.2°. Therefore, the present invention not only covers the crystal form that completely matches the characteristic signal peak in the specific XRPD pattern, but also covers the crystal form that has an error of about ± 0.2° with the characteristic signal peak in the specific XRPD pattern. 2. Solubility Test Method: About 20 mg of the test sample was taken and placed in a 1.5 ml sample tube, added with 1 ml of water, then placed in a shaker, shaken at 37°C for 30 minutes, the sample tube was taken and centrifuged in a centrifuge for 2 minutes, and the supernatant was taken for HPLC analysis.

A short description of data set [3]: Stability test of the salts (high temperature / high humidity, 14 days). The data set is classed as physicochemical. As to the method: as §1
Data set [4] addresses T1, 5-HT3 receptor (Homo sapiens, UniProt P46098).
T1 sequence (P46098 24-478): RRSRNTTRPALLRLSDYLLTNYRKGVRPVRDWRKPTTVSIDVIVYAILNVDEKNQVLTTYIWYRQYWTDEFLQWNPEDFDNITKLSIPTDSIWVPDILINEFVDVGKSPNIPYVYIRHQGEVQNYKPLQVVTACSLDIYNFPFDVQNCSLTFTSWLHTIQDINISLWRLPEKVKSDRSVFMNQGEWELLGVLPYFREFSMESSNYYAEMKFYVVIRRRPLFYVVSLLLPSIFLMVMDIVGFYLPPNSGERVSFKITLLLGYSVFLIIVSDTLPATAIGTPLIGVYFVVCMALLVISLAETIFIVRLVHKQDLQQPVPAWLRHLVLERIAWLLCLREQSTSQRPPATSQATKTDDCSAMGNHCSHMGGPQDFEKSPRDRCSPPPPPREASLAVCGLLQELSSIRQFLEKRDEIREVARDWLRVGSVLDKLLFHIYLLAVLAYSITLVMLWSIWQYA
The conditions noted are these: cited from earlier work.

Data set [5] has as its target serotonin reuptake (Homo sapiens, UniProt P31645). The settings on record: read-out: serotonin reuptake inhibition concentration (IC50); cited from earlier work.
The conditions of data set [6]: cited from earlier work.
Where [7] appears, read: 60°C/14 days (aluminum foil pouch).

Chain of serotonin reuptake (P31645 whole entry): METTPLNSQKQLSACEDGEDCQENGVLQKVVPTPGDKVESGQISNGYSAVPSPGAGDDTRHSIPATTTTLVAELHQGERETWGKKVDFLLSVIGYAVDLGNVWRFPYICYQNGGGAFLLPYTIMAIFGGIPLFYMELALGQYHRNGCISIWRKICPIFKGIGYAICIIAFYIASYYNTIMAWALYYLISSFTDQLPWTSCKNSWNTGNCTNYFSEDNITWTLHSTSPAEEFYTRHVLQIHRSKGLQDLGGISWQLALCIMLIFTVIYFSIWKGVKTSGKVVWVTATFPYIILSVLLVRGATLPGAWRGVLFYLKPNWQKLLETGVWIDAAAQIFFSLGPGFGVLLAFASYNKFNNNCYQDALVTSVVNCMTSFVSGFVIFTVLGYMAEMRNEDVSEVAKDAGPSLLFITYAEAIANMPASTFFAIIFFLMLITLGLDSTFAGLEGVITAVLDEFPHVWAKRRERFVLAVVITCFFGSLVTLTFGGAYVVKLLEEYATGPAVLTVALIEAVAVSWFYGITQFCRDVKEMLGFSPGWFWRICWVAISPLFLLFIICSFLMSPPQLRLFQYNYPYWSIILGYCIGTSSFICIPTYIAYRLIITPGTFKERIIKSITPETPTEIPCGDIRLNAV

As a reminder, the Solubility is the concentration that dissolves in the medium under given conditions. `CN1CC2CN(c3ccc4ccccc4c3)CC2C1` (single isomer, unassigned) [Example 1, 2-methyl-5-(naphthalen-2-yl)octahydropyrrolo[3,4-c]pyrrole]: the “weight gain by moisture absorption” value in data set [1] is reported as 1.6%. The Solubility in data set [2] is >100 mg/mL. For the same compound, the “Total Impurity (%)” value is given as 0.15% in data set [3] (40°C/75% RH/14 days), 0.19% in data set [3] (60°C/14 days), 0.19% in data set [3] (setting [7]) and 0.13% in data set [3] (Day 0).
`CN1CC2CN(c3ccc4ccccc4c3)CC2C1` (single isomer, unassigned) [Example 2, 2-methyl-5-(naphthalen-2-yl)octahydropyrrolo[3,4-c]pyrrole]: in data set [1], the “weight gain by moisture absorption” value turned out to be 0.74%. This compound had a Solubility in data set [2] of 11 mg/mL (≈ 43.6 mM). The “Total Impurity (%)” value in data set [3] (40°C/75% RH/14 days) is on record as 0.31%; in data set [3] (60°C/14 days), 0.37%; in data set [3] (setting [7]), 0.36%; in data set [3] (Day 0) it was 0.35%.
`CN1CC2CN(c3ccc4ccccc4c3)CC2C1` (single isomer, unassigned) [Example 4, 2-methyl-5-(naphthalen-2-yl)octahydropyrrolo[3,4-c]pyrrole]: in data set [1], the “weight gain by moisture absorption” value is 6.74%. This compound also yielded a Solubility in data set [2] of 3.5 mg/mL (≈ 13.9 mM). For the same compound, the “Total Impurity (%)” value is on record as 0.44% in data set [3] (40°C/75% RH/14 days), 0.22% in data set [3] (60°C/14 days), 0.24% in data set [3] (setting [7]) and 0.21% in data set [3] (Day 0).
For `CN1CC2CN(c3ccc4ccccc4c3)CC2C1` (single isomer, unassigned) [Example 5, 2-methyl-5-(naphthalen-2-yl)octahydropyrrolo[3,4-c]pyrrole], in data set [1], the “weight gain by moisture absorption” value is 1.21%. Further, the Solubility in data set [2] is given as 4 mg/mL (≈ 15.9 mM).
`CN1CC2CN(c3ccc4ccccc4c3)CC2C1` (single isomer, unassigned) [Example 6, 2-methyl-5-(naphthalen-2-yl)octahydropyrrolo[3,4-c]pyrrole]: the “weight gain by moisture absorption” value in data set [1] is on record as 1.26%.
`CN1CC2CN(c3ccc4ccccc4c3)CC2C1` (single isomer, unassigned) [Example 7, 2-methyl-5-(naphthalen-2-yl)octahydropyrrolo[3,4-c]pyrrole]: the “weight gain by moisture absorption” value in data set [1] worked out at 0.64%. Further, the Solubility in data set [2] worked out at 15 mg/mL (≈ 59.4 mM). Further, the “Total Impurity (%)” value in data set [3] (40°C/75% RH/14 days) amounted to 0.17%; in data set [3] (60°C/14 days) it was 0.18%; in data set [3] (setting [7]), 0.20%; in data set [3] (Day 0), 0.14%.
For the compound `CN1CC2CN(c3ccc4ccccc4c3)CC2C1` (stereo not drawn) [Example 3, 2-methyl-5-(naphthalen-2-yl)octahydropyrrolo[3,4-c]pyrrole], in data set [1], the “weight gain by moisture absorption” value is “To be liquid”.
Consider `CN1CC2CN(c3ccc4ccccc4c3)CC2C1` (stereo not drawn) [compound of formula (I), 2-methyl-5-(naphthalen-2-yl)octahydropyrrolo[3,4-c]pyrrole], for which the “affinity for 5-HT3 receptor” value in data set [4] is recorded as “high affinity”. In data set [5], the IC50 was < 10 nM. Moreover, the Solubility result in data set [6] is listed as “low”; in data set [2] (listed as basic compound of formula (I)), “Almost Insoluble”. The “Total Impurity (%)” value in data set [3] (40°C/75% RH/14 days, listed as Basic compoun d) is recorded as 0.41%; in data set [3] (60°C/14 days (aluminum foil pouch), listed as Basic compoun d) it was 0.31%; in data set [3] (60°C/14 days, listed as Basic compoun d), 0.23%; in data set [3] (Day 0, listed as Basic compoun d), 0.15%.
